From patent US20180296530A1, “METHOD FOR TREATING ATOPIC DERMATITIS” (priority 2015, published 2018)
Entries after “also recorded” stand apart in the source; their conditions may differ.

Experiments:
[1] = system: Patients aged 1 to 18 years with physician-diagnosed AD; assay: Clinical trial: polysomnography in a subgroup; format: in vivo, human; conditions: melatonin vs placebo, P>0.05
Description: Sleep was evaluated by actigraphy (Mini-Mitter Actiwatch; Philips-Respironics). Each participant wore the actigraphic device on the nondominant wrist for 3 consecutive nights starting 3 nights before each treatment period and for the last 3 nights of each treatment period. In a subgroup of patients who offered consent, polysomnography was performed on the night before the first day and on the last night of each treatment period.

[2] = Clinical trial: nocturnal urinary 6-sulfatoxymelatonin by ELISA; format: in vivo, human; conditions: after treatment with melatonin compared with placebo, P<0.001
Description: The first urine sample on the morning after each actigraphic examination was obtained. Levels of urinary 6-sulfatoxymelatonin were assayed by enzyme-linked immunosorbent assay with a commercialized kit (IBL International GmbH) and were used to represent the melatonin level throughout the previous night.

[3] = Clinical trial: adverse events; format: in vivo, human; conditions: oral melatonin 3 mg/d, 4 weeks, children with AD
Description: Visits occurred at the start of the prescreening and on the first and last day of each treatment period, during which AD disease severity was assessed, blood and urine samples were collected, questionnaires evaluating subjective symptoms were filled out, and pill count and adverse events were recorded.

[4] = system: IL-4; assay: Example 5: dorsal skin IL-4 mRNA by RT-PCR; format: in vivo, Balb/c mice
Description: (§1) The protocol for establishing an AD mouse model in this Example was modified from those described previously. Briefly, referring to FIG. 4, DNCB-induced AD mouse model was prepared by the repeated applications of 20 μL of 1% DNCB in acetone/olive oil (4:1) to the outer and inner surfaces of mouse ears and 100 μL of the same solution to the shaved back skin once on days 1, 2, and 3. Mice of Control group were treated with the identical volumes of vehicle.
The DNCB-sensitized mice were randomly assigned to one of three groups: DNCB (Positive control), DNCB+3% topical melatonin (Treatment: low-dose), DNCB+5% topical melatonin (Treatment: high-dose). Each group (including Control group) consisted of 5 mice. From days 9 to 19, sensitized mice were challenged by applying 0.5% DNCB to the skin surfaces. For the two groups treated with topical melatonin groups, 0.3 mg of topical melatonin ointment (3% or 5% melatonin in Vaseline) was given together with DNCB during the challenge period. […]
Blood and dorsal skin of each mouse were collected on the last day of the experiment (Day 20) and stored at −80° C. until use. Serum IgE levels were measured using the ImmunoCAP fluorescence enzyme immunoassay (Phadia AB, Sweden) according to the manufacturer's instructions. The dorsal skin mRNA expression of the cytokines IL-4, IL-13, and IL-17 were measured by RT-PCR.

[5] = system: DNCB-induced AD mouse model; assay: Example 6: dermatitis severity, topical melatonin cream in DNCB-induced AD mouse model; format: in vivo, Balb/c mice; conditions: for clinical score (dermatitis): day 1 to day 14, Day 15, DNCB group 10, Control 0
Description: Macroscopic assessment of the severity of dermatitis was determined by a scoring method as described previously. Briefly, the degree of each sign were scored as 0 (none), 1 (mild), 2 (moderate), and 3 (severe). This scoring was based on the severity of erythema (hemorrhage), edema, excoriation (erosion), and dryness (scaling). The total score (minimum 0 and maximum 12) from the four symptoms of each mouse were taken as the score for that mouse. Ear thickness was measured with a thickness gauge (Digimatic Indicator, Mitsutoyo, Tokyo). This assessment was performed on the last day of the experiment (Day 20) by an investigator who was blind to the grouping of the animals.
Four- to six-week-old Balb/c mice were maintained under specific pathogen-free conditions. Animals were housed in an air-conditioned animal room (25±1° C.; relative humidity 40±5%) and were fed a laboratory diet and distilled water. Animal care and handling protocols were approved by the Animal Committee of the College of Medicine, Taiwan University, and all procedures were conducted in accordance with the U.S. National Institute of Health guidelines.
as §1, with “12,” for “4,”, “1” for “1, 2,”, “4.” for “3.”
The DNCB-sensitized mice were randomly assigned to one of four groups: DNCB, DNCB+0.1% topical melatonin, DNCB+1% topical melatonin, DNCB+8% topical melatonin. Each group (including Control group) consisted of 3 mice. On days 8 and 11, sensitized mice was challenged by applying 0.2% DNCB to the skin surfaces. For the three groups treated with topical melatonin groups, 0.1 mg of topical melatonin cream was given twice a day from day 1 to day 14. The cream base consisted of a mixture of tefose 63, octyldodecyl myristate, sorbic acid, methyl paraben sodium, ddH2O, and apricot kernel oil. For Control and DNCB groups, 0.1 mg of cream base was given twice a day from day 1 to day 14. This experiment was ended at Day 15.
The dermatitis severity of each mouse treated with or without melatonin was evaluated in the same manner as those described in Example 5. This evaluation was performed on the last day of the experiment (Day 15) by an investigator who was blind to the grouping of the animals.

## COc1ccc2[nH]cc(CCNC(C)=O)c2c1 [Melatonin, melatonin]
[1]
  effect on the stages of sleep and limb movement: did not have a significantly different effect
[2]
  Nocturnal urinary 6-sulfatoxymelatonin levels: significantly increased
[3]
  adverse events: no adverse event was reported; also recorded: no adverse effect of medication was reported
[4]; 5% melatonin treatment compared with 3% melatonin treatment
  skin mRNA expression of IL-4, dose-response: decreased more
[4]; after topical melatonin treatment (3% or 5%), FIG. 11A
  skin mRNA expression of IL-4: decreased
[5]; 0.1% melatonin cream twice a day
  clinical score (dermatitis): 7
[5]; 0.1%, 1%, and 8% topical melatonin, 8% improved the skin severity most
  gross skin findings: improved the gross skin findings in a dose-dependent manner
[5]; 8% melatonin cream twice a day
  clinical score (dermatitis): 2
[5]; after 8% melatonin treatment, FIG. 14
  Ear thickness: significantly improved
